The values that follow come from US8980226B2, “Aerosolized fosfomycin/aminoglycoside combination for the treatment of bacterial respiratory infections” (Gilead Sciences, Inc., priority 2004, dated 2015).

The conditions of data set [1]: cited from earlier work.
A further data set relates to E. coli ATCC 25922. The data set is described as follows: Animal efficacy, rat lung infection, aerosol administration. Type of data set: in vivo. To be noted: aerosol administration of a 40 mg/mL solution of tobramycin alone (FIG. 18). Here is the method: The in vivo efficacy of aerosolized fosfomycin alone, tobramycin alone and combinations of fosfomycin plus tobramycin were evaluated against E. coli ATCC 25922 and P. aeruginosa ATCC 27853 in rat lungs. The bacterial inoculum used to establish the rat lung infections consisted of a mixture of bacteria and agarose beads. E. coli ATCC 25922 or P. aeruginosa ATCC 27853 was streaked onto blood agar plates and incubated for 18-24 hours at 35° C. Two to three colonies were inoculated into 10 mL Tryptic Soy Broth (hereafter referred to as TSB) and incubated statically at 35° C. for 1.5 to 2 hours. The culture was adjusted to an optical density of 0.1 (625 nm) in fresh TSB and then diluted 1:5 in TSB. One milliliter of bacterial suspension (approximately 10^7 CFU/mL) was added to 10 mL of a 2% noble agar solution and briefly mixed by inversion. The mixture was added to 150 mL of heavy white mineral oil equilibrated to 55° C. and stirred on ice for 5 minutes. The cooled suspension was poured into a 250 mL centrifuge tube and centrifuged at 3,000 rpm, 4° C., for 10 minutes. The supernatant was decanted off, the pellet resuspended in 25 mL of normal sterile saline, and transferred to a 50 mL conical centrifuge tube. […]
Bacterial killing was evaluated 18 hours after the last exposure. […] The lungs were removed aseptically, excess tissue removed and the lung weight determined. […]

A value given as a limit tells only on which side of the number the result lay.

For the molecule `NC[C@H]1O[C@H](O[C@H]2[C@H](O)[C@@H](O[C@H]3O[C@H](CO)[C@@H](O)[C@H](N)[C@H]3O)[C@H](N)C[C@@H]2N)[C@H](N)C[C@@H]1O` [Tobramycin], the sputum levels in data set [1] (aerosol administration) is no less than 1000 µg/mL. In addition, the oral absorption result in data set [1] (in vivo, po) is recorded as “poorly absorbed orally”. In data set [1] (parenteral administration), the plasma half-life is 1 to 2 h. Also, in the data set on E. coli ATCC 25922, the “killing of E. coli in the rat lung” value came to 2 log 10.
